How the values were obtained:
[1] = target: D(2) dopamine receptor (Rattus norvegicus, UniProt P61169); assay: Compound was tested for its binding affinity towards Dopamine receptor D2 using [3H]spiperone from rat striatum
[2] = target: T1, Alpha-1A adrenergic receptor (Rattus norvegicus, UniProt P43140); assay: Compound was tested for its binding affinity towards Alpha-1A adrenergic receptor using [3H]prazosin from rat submaxillary gland
T1 sequence (P43140 whole entry): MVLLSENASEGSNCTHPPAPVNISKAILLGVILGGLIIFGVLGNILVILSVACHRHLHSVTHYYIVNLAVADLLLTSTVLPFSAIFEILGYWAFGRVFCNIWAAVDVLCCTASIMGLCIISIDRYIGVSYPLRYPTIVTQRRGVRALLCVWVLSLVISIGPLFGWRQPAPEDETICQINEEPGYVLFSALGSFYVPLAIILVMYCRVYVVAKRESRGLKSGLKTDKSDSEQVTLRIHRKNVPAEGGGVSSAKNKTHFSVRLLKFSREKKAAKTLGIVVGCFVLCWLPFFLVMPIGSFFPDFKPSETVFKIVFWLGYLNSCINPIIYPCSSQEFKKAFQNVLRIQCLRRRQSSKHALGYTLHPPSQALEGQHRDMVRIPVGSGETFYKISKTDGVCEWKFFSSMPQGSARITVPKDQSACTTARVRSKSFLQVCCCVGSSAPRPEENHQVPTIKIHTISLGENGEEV

[3] = target: T2, Alpha-1B adrenergic receptor (Rattus norvegicus, UniProt P15823); assay: Compound was tested for its binding affinity towards Alpha-1B adrenergic receptor using [3H]prazosin from rat liver
T2 sequence (P15823 whole entry): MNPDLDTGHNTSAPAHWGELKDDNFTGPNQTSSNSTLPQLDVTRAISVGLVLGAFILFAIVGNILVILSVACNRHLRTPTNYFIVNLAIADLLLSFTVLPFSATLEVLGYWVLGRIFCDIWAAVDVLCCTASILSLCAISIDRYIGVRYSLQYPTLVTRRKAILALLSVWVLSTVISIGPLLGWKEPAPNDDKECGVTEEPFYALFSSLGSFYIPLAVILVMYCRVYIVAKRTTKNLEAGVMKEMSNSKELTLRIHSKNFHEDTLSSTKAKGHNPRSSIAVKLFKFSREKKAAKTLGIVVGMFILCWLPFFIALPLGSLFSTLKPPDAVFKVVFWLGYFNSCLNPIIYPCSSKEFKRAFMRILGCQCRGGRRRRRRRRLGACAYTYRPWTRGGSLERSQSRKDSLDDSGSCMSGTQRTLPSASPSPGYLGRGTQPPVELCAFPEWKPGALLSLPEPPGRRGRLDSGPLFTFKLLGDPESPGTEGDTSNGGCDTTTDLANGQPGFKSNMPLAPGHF

[4] = target: T3, Muscarinic acetylcholine receptor M2 (Rattus norvegicus, UniProt P10980); assay: Compound was tested for its binding affinity towards Muscarinic acetylcholine receptor M2 using [3H]NMS from rat heart
T3 sequence (P10980 whole entry): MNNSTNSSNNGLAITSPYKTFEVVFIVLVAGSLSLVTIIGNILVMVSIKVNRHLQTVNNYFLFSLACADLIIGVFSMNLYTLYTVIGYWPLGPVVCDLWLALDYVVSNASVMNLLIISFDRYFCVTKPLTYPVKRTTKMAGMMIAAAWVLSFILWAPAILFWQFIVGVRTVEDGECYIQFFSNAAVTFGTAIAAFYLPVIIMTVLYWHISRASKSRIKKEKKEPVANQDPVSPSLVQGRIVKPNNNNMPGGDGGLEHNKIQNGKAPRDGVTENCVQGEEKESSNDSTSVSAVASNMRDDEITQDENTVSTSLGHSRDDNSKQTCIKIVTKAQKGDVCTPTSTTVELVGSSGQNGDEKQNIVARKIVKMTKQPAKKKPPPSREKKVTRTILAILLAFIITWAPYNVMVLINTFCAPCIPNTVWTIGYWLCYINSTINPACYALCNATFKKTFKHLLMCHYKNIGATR

[5] = target: Glutamate receptor ionotropic, NMDA 2C (Rattus norvegicus, UniProt Q00961); assay: Compound was tested for its binding affinity towards PCP receptor using [3H](+)-NANM in the presence of 5 uM haloperidol from rat brain
Sequence of Glutamate receptor ionotropic, NMDA 2C (Q00961 whole entry): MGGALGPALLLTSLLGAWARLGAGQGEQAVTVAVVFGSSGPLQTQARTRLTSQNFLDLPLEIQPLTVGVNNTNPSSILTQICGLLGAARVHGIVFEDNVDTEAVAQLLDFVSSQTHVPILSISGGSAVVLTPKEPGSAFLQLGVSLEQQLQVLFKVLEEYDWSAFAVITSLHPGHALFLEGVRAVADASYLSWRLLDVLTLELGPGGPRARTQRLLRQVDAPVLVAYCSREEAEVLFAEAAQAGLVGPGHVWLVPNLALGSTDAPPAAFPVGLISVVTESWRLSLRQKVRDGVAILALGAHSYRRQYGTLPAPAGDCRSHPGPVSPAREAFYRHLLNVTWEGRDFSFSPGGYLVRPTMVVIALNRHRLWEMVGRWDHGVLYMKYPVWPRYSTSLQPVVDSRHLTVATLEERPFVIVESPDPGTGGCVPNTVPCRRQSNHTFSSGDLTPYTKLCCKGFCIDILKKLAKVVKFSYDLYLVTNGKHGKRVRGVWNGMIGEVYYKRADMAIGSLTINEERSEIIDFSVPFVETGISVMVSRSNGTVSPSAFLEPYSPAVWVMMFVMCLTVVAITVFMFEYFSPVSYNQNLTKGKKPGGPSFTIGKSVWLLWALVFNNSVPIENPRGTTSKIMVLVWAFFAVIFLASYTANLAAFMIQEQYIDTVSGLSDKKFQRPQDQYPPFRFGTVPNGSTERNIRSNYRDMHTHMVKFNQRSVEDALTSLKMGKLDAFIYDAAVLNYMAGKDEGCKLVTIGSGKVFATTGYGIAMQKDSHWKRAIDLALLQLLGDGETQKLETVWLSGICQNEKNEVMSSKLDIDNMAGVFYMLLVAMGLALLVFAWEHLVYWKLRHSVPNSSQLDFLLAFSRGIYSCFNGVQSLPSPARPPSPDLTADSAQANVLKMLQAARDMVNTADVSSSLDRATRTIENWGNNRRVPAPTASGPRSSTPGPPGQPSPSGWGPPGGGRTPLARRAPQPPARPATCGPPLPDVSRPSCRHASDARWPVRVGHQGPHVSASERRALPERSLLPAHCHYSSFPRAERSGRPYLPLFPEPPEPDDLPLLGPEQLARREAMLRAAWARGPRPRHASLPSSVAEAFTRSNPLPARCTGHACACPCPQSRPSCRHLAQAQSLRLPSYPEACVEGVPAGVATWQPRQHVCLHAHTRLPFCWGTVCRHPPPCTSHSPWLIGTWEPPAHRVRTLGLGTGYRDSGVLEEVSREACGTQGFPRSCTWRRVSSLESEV

[6] = target: Sigma 2 receptor; assay: Binding affinity towards sigma 2 receptor using [3H]DTG in the presence of 200 nM (+)-NANM from guinea pig brain; design: species or system Cavia porcellus
[7] = target: Muscarinic acetylcholine receptor M3 (Rattus norvegicus, UniProt P08483); assay: Compound was tested for its binding affinity towards Muscarinic acetylcholine receptor M3 using [3H]NMS from rat submaxillary gland
Sequence of Muscarinic acetylcholine receptor M3 (P08483 whole entry): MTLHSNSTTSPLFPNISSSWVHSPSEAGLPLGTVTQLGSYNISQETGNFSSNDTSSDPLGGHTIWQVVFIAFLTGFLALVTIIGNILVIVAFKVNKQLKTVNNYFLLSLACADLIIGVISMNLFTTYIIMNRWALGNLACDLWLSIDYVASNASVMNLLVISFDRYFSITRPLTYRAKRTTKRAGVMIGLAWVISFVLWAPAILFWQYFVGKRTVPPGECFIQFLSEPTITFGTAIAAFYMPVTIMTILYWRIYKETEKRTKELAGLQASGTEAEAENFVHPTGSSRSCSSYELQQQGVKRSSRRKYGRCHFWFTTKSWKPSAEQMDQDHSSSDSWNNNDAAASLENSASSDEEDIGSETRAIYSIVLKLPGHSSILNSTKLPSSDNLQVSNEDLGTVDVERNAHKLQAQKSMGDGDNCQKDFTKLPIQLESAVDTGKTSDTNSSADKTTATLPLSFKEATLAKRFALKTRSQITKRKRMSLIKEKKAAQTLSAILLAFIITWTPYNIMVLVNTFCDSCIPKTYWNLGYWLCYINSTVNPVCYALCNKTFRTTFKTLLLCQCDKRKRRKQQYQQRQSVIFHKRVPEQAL

[8] = target: Serotonin 2 (5-HT2) receptor; assay: Compound was tested for its binding affinity towards 5-hydroxytryptamine 2 receptor using [3H]ketanserin from guinea pig frontal cortex; type: tissue-based, Cavia porcellus
[9] = target: Opioid receptor (Rattus norvegicus, UniProt P33533+P34975+P33535); assay: Compound was tested for its binding affinity towards Opioid receptors using [3H]naloxone from rat whole brain

Sequence of D(2) dopamine receptor (P61169 whole entry): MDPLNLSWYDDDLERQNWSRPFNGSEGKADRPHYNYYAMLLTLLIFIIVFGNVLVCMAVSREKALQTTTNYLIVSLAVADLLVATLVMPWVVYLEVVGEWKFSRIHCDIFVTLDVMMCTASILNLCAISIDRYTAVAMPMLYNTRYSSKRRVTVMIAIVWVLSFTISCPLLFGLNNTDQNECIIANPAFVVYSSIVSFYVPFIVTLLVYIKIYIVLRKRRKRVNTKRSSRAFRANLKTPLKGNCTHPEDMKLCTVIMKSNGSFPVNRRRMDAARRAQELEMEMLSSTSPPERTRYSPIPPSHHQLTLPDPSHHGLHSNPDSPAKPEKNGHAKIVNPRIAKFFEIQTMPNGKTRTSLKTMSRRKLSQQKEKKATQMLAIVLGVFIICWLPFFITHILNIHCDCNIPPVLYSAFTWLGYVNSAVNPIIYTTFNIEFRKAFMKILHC

Ki [2]	Ki [3]	Ki [4]	Ki [5]	Ki [7]	Ki [8]	Ki [9]	Structure (SMILES)	Ki [1]	Ki [6]
> 10 µM	> 10 µM	> 10 µM	> 10 µM	> 10 µM	> 10 µM	> 10 µM	c1ccc(CN2CCC3(CCc4ccccc4O3)CC2)cc1	> 10 µM	0.022 µM
> 10 µM	> 10 µM	10.8 µM	> 10 µM	> 10 µM	7.6 µM	> 10 µM	c1ccc(CN2CCC3(CCc4ccccc4S3)CC2)cc1	10.4 µM	0.416 µM
> 10 µM	> 10 µM	2.7 µM	> 10 µM	> 10 µM	0.218 µM	> 10 µM	O=C1c2ccccc2CCC12CCN(Cc1ccccc1)CC2		0.01 µM
							CN1CCN(C2=Nc3cc(Cl)ccc3Nc3ccccc32)CC1 [CLOZAPINE]		> 10 µM
				0.998 µM			COc1ccccc1CNCCCCCCNCCCCCCCCNCCCCCCNCc1ccccc1OC [METHOCTRAMINE]		

Structure (SMILES)	Ki [2]	Ki [3]	Ki [4]	Ki [5]	Ki [7]	Ki [8]	Ki [9]	Ki [1]	Ki [6]
[O-][S+]1c2ccccc2CCC12CCN(Cc1ccccc1)CC2 (stereo unspecified)	> 10 µM	> 10 µM	> 10 µM	> 10 µM	> 10 µM	> 10 µM	> 10 µM	> 10 µM	1.7 µM
O=S1(=O)c2ccccc2CCC12CCN(Cc1ccccc1)CC2	> 10 µM	> 10 µM	> 10 µM	> 10 µM	> 10 µM	> 10 µM	> 10 µM	> 10 µM	1.8 µM

— ChEMBL document CHEMBL1131209 (J Med Chem, 1998)
